The text below walks through data of patent publication US9765082B2, “Crystalline form of tiotropium bromide with lactose” (EUTICALS SPA, priority 2014, dated 2017).

The conditions of data set [1]: 40° C. for few hours; literature data; cited from earlier work.
A short description of data set [2]: Solid-state change of Tiotropium Bromide monohydrate on heating, by DRX. In kind it is physicochemical. To be noted: 40° C. at 50% UR for 72 hours, FIGS. 4 and 4A. As for the experimental part:
FIGS. 4 and 4A show the DRX spectra of a Tiotropium Bromide monohydrate before and after the heating at 40° C. at 50% UR for 72 hours.
In fact, this is an equilibrium that is driven by the relative humidity of the environment. […] See the enclosed DRX spectra of a Tiotropium Bromide monohydrate before and after the above described treatment (FIGS. 4 and 4A).

The nature of data set [3]: Stability of the crystalline form on storage, analyzed by DRX (powder). In kind it is physicochemical. Particulars: particularly polyethylene bag as primary packaging; driven by relative humidity. An excerpt:
X-Ray Diffraction spectra were registered by means of diffractometer (Rigaku-D-Max) from a start angle [½ 2-theta] of 5.000 to 60.000. The diffraction diagrams were obtained employing a Cu anode (Kα=1,54060 Å and Kα=1,54439 Å). The HPLC method utilized to check the quality of Tiotropium Bromide in the examined samples is the same as described in the European Pharmacopoeia 7.0.

Take `C[N+]1(C)[C@@H]2C[C@@H](OC(=O)C(O)(c3cccs3)c3cccs3)C[C@H]1[C@@H]1O[C@@H]12` [Tiotropium Bromide monohydrate]: the “Solid state after mild heating” value in data set [1] is on record as “easily transformed”. The “Solid state after heating (DRX)” value in data set [2] is “changes into the corresponding anhydrous form”.

In the case of `C[N+]1(C)[C@@H]2C[C@@H](OC(=O)C(O)(c3cccs3)c3cccs3)C[C@H]1[C@@H]1O[C@@H]12.[Br-]` [Tiotropium Bromide, Tiotropium bromide], the “Crystalline form in the same storage conditions” value in data set [3] is “may absorb or lose water, thus changing the crystalline form”.
